# Like-named read-outs stand apart in the source and are kept apart here.
# How the values were obtained:
# [1] = test system: L. reuteri DSM 17938; assay: MIC and MBC by broth microdilution in MRSB; format: cell-based, Lactobacillus reuteri; conditions: Limosilactobacillus reuteri
# [2] = test system: H. pylori; assay: flow cytometry detection of cell viability (Live/Dead BacLight); conditions: sub-MIC treated samples, SYTO 9/propidium iodide
# [3] = test system: L. rhamnosus GG ATCC 53103; assay: MIC and MBC by broth microdilution in MRSB; format: cell-based, Lactobacillus rhamnosus; conditions: Lacticaseibacillus rhamnosus
# [4] = test system: H. pylori; conditions: Helicobacter pylori
# [5] = test system: H. pylori ATCC43504 biofilm; assay: antibiofilm activity (alamarBlue, CFU count, crystal violet, Live/Dead fluorescence microscopy); format: cell-based, Helicobacter pylori; conditions: for CFU count of biofilm / inhibition of H. pylori biofilm development: sub-MIC (carvacrol, thymol 64 µg/mL; amoxicillin 0.016 µg/mL); for biofilm observed by fluorescence microscopy (Live/Dead): sub-MIC treated samples, 72 h of incubation
# Description: The CA inhibitors and amoxicillin were diluted in liquid culture medium consisting of BB supplemented with 2% (v/v) of FBS and 0.3% (w/v) of glucose. […] The controls consisted of: […] The antibiofilm assay was performed in 96-well flat bottom microtiter plates (Eppendorf, Hamburg, Germany). The biofilm formation in the controls and treated samples was evaluated in 35 mm Petri dishes (Eppendorf, Hamburg, Germany) stained with Live/Dead staining and visualized by fluorescence microscope. Three independent experiments were performed in triplicate. The plates were incubated at 37 °C for 72 h under microaerophilic conditions. After 72 h of incubation, the minimum biofilm inhibitory concentration (MBIC) was determined through the alamarBlue assay, the CFU count, and the crystal violet (CV) assay (Sigma Aldrich, St. Louis, MO, USA). In detail, at the end of the incubation, the non-adherent cells, corresponding to the planktonic supernatant, were removed, and the biofilms were washed with 100 µL of DPBS (Sigma Aldrich, St. Louis, MO, USA). AlamarBlue was diluted to 10% in the selected culture medium, and 100 µL was added to each sample in the wells. The samples were incubated for 4 h at 37 °C in microaerophilic conditions, and subsequently the percentage of alamarBlue reduction was determined. The CFU count was carried out starting from the wells stained with alamarBlue. […] Serial dilutions of the stock were performed in DPBS, plated on the selected agar, and incubated at 37 °C under microaerophilic conditions for 3–5 days. The antibiofilm activity was also determined through crystal violet staining following the procedure indicated. Then, the absorbance at 590 nm was measured, and the percentage of biofilm biomass, normalized to the control, was determined. […] The biofilms developed in 35 mm Petri dishes were stained with Live/Dead™ BacLight™ Bacterial Viability Kit (Life Technologies Carlsbad, CA, USA) as previously reported and immediately visualized at the fluorescence microscope.
# [6] = test system: H. pylori ATCC43504 planktonic and biofilm phenotypes; format: cell-based, Helicobacter pylori
# [7] = test system: L. acidophilus ATCC SD5214; assay: MIC and MBC by broth microdilution in MRSB; format: cell-based; conditions: Lactobacillus acidophilus
# [8] = test system: H. pylori ATCC43504; assay: MIC and MBC by broth micro-dilution with alamarBlue; format: cell-based; conditions: Helicobacter pylori
# Description: H. pylori colonies were collected and inoculated in Brucella Broth (BB; Oxoid Ltd., Hampshire, UK) added with 2% (v/v) of foetal bovine serum (FBS; Sigma Aldrich, Milan, Italy). […] Oxoid Ltd., Hampshire, UK). […] The MIC was determined by the broth micro-dilution method, following the guidelines of the Clinical and Laboratory Standards Institute. […] Carvacrol and thymol were resuspended in dimethyl sulfoxide (DMSO, Sigma-Aldrich, Milan, Italy) and were diluted in the liquid culture medium described above. […] The controls consisted of: (I) H. pylori broth culture; (II) BB plus 2% (v/v) of FBS, with the addition of the two CA inhibitors or amoxicillin at different concentrations; (III) just BB plus 2% (v/v) of FBS. Three independent experiments were performed in triplicate. The plates were then incubated at 37 °C for 72 h under microaerophilic conditions. […] AlamarBlue was added at 10% in each well, following the manufacturer instructions, and the plates were placed in an incubator for 4 h at 37 °C in microaerophilic conditions. After the incubation, the percentage of alamarBlue reduction of treated and untreated samples was determined, as previously described. The minimum bactericidal concentration (MBC) was determined by using the same wells stained with alamarBlue. Briefly, 100 μL of the bacterial suspensions, taken from the blue-violet wells, were seeded on the selected agar plates and incubated at 37 °C for 3–5 days in microaerophilic conditions.
# [9] = target: SmuCA (Streptococcus mutans, UniProt Q8DVY1); assay: stopped-flow CO2 hydrase assay, SmuCA; format: biochemical
# Chain of SmuCA (Q8DVY1 1-166): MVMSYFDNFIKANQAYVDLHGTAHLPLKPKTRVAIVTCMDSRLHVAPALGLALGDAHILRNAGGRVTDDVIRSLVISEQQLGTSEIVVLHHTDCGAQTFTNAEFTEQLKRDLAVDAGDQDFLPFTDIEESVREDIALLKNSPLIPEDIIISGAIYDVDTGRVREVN
# [10] = test system: AGS cells; parameters: method as in PMID 33228095, PMID 33805064; conditions: read-out: IC50 against AGS cells; cited from earlier work
# [11] = target: MgCA (Malassezia globosa, UniProt A8Q1N3); assay: stopped-flow CO2 hydrase assay, MgCA; format: biochemical
# Chain of MgCA (A8Q1N3 1-241): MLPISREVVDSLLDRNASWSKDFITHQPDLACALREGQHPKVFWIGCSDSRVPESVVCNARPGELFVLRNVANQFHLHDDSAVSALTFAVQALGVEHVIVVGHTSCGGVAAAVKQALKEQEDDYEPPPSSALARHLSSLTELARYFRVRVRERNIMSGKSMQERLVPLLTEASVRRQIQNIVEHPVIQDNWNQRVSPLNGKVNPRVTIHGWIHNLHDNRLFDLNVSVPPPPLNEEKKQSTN
# [12] = test system: several reference and clinical H. pylori strains; parameters: method as in PMID 33228095, PMID 33805064; conditions: cited from earlier work
# [13] = target: T1, hCA VI (Homo sapiens, UniProt P23280); assay: stopped-flow CO2 hydrase assay, hCA VI; format: biochemical
# T1 construct: made in house; host or cells: Escherichia coli (DE3)
# T1 sequence (P23280 18-308): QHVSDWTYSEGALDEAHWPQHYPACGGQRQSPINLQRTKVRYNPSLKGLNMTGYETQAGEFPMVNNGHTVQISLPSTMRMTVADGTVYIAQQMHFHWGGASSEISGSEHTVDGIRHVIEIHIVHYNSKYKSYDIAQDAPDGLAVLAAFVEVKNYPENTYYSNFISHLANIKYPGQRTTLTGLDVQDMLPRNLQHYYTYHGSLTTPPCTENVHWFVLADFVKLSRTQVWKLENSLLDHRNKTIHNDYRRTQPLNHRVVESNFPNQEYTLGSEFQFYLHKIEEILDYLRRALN
# [14] = target: T2, hCA II (Homo sapiens, UniProt P00918); assay: stopped-flow CO2 hydrase assay, hCA II; format: biochemical
# T2 construct: made in house; host or cells: Escherichia coli (DE3)
# [15] = target: T3, HpCAβ (Helicobacter pylori, UniProt O24855); assay: biochemical; conditions: mean from three assays, errors ±5–10%
# T3 sequence (O24855 1-221): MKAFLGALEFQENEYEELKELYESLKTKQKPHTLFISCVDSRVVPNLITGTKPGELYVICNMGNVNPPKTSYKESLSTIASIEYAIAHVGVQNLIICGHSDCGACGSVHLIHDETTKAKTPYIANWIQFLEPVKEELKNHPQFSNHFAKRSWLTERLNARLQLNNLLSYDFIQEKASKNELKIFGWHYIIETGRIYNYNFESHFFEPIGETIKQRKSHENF
# [16] = target: T4, hCA I (Homo sapiens, UniProt P00915); assay: stopped-flow CO2 hydrase assay, hCA I; format: biochemical
# T4 construct: made in house; host or cells: Escherichia coli (DE3)
# T4 sequence (P00915 whole entry): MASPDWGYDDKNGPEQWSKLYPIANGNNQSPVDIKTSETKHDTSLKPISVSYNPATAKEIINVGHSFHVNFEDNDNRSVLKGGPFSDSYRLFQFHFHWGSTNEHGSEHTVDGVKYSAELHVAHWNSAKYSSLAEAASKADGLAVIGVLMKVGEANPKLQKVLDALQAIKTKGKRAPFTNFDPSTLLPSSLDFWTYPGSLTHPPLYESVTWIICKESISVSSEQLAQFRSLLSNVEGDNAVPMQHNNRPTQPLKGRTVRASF
# [17] = target: PgiCAβ (Porphyromonas gingivalis, UniProt B2RL07); assay: stopped-flow CO2 hydrase assay, PgiCAβ; format: biochemical
# Chain of PgiCAβ (B2RL07 19-242): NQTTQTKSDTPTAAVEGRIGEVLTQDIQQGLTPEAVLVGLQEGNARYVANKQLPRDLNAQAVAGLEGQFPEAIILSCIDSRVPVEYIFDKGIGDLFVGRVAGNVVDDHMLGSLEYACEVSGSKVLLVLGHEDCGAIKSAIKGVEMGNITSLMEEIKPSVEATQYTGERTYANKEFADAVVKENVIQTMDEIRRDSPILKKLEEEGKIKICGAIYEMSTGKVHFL
# [18] = test system: H. pylori ATCC43504/NCTC11637; conditions: characterisation of reference strain ATCC43504/NCTC11637; no reference given; cited from earlier work
# [19] = target: (UniProt Q9ZK30); assay: biochemical; parameters: species or system Helicobacter pylori; conditions: read-out: Ki HpCAα
# Chain of (UniProt Q9ZK30) (Q9ZK30 19-247 limits assumed): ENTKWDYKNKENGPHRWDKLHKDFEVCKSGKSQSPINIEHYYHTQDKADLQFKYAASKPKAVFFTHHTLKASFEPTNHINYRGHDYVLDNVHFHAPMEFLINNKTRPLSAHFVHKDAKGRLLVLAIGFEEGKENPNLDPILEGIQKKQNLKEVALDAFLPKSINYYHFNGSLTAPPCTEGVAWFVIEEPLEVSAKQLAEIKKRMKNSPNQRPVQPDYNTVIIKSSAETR
# [20] = target: T3, HpCAβ; conditions: both HpCAs; cited from earlier work
# [21] = DSM17938, L. reuteri DSM 17938, 24 h, anaerobic, read-out: MIC
# [22] = DSM17938, L. reuteri DSM 17938, read-out: MBC
# [23] = ATCC53103, L. rhamnosus GG ATCC 53103, 24 h, anaerobic, read-out: MIC
# [24] = ATCC53103, L. rhamnosus GG ATCC 53103, read-out: MBC
# [25] = Planktonic T (treated with sub-MIC concentration)
# [26] = biofilm phenotype, sub-MIC concentration
# [27] = planktonic phenotype, sub-MIC concentration
# [28] = ATCCSD5214, L. acidophilus ATCC SD5214, 24 h, anaerobic, read-out: MIC
# [29] = ATCCSD5214, L. acidophilus ATCC SD5214, read-out: MBC
# [30] = H. pylori ATCC43504, 72 h, microaerophilic, read-out: MIC
# [31] = H. pylori ATCC43504, read-out: MBC
Compound,"MIC [1, 21]","MBC [1, 22]",live cells (flow cytometry) [2],"MIC [3, 23]","MBC [3, 24]",viability (flow cytometry) [4],CFU count of biofilm ([5]; 72 h),inhibition of H. pylori biofilm development ([5]; 72 h),biofilm observed by fluorescence microscopy (Live/Dead) [5],"% OMV eDNA+/Total OMVs [6, 25]","pOMV eDNA+ count versus untreated [6, 27]","total pOMVs count versus untreated [6, 27]","MIC [7, 28]","MBC [7, 29]","MIC [8, 30]","MBC [8, 31]",Ki [9],IC50 [10],Ki [11],MIC range [12],also measured
"CC1(C)S[C@@H]2[C@H](NC(=O)[C@H](N)c3ccc(O)cc3)C(=O)N2[C@H]1C(=O)O [amoxicillin, reference compound]",16 µg/mL,64 µg/mL,3.18 × 10^6 live cells/mL,1 µg/mL,1 µg/mL,around 64%,1.92 × 10^7 CFUs,did not inhibit H. pylori biofilm formation,well-structured biofilm with some dead cells,16.52%,decrease,decrease,0.25 µg/mL,0.25 µg/mL,0.032 µg/mL,0.032 µg/mL,,,,,"% OMV eDNA+/Total OMVs ([6]; Biofilm T (treated with sub-MIC concentration)): 36.09%; bOMV eDNA+ versus untreated [6, 26]: no differences; total bOMVs versus untreated [6, 26]: no differences"
Cc1ccc(C(C)C)c(O)c1 [thymol],4000 µg/mL,> 4000 µg/mL,3.00 × 10^5 live cells/mL,> 16000 µg/mL,> 16000 µg/mL,around 32%,No CFUs were observed,ability to inhibit the development of the H. pylori mature biofilm,no biofilm formation,35.47%,significative difference,significative difference,> 16000 µg/mL,> 16000 µg/mL,128 µg/mL,256 µg/mL,84.9 µM,200 ± 6.5 µM,> 100 µM,64 to 128 µg/mL,"MIC ([1]; DSM17938, L. reuteri DSM 17938, text, read-out: MIC): 4000 µg/mL; biofilm biomass percentage (crystal violet) versus untreated samples ([5]; sub-MIC 64 µg/mL, 72 h): significantly lower; percentage of alamarBlue reduction in respect to the corresponding controls ([5]; sub-MIC 64 µg/mL, biofilm, 72 h): ~85%; Ki [13]: > 100 µM; Ki [14]: > 100 µM; Ki [15]: 3.4 µM; Ki [16]: > 100 µM; Ki [17]: 48.9 µM"
Cc1ncc([N+](=O)[O-])n1CCO [metronidazole],,,,,,,,,,,,,,,,,,,,,MIC range [18]: 64 to 256 µg/mL
Cc1ccc(C(C)C)cc1O [carvacrol],,,3.80 × 10^4 live cells/mL,,,,No CFUs were observed,ability to inhibit the development of the H. pylori mature biofilm,no biofilm formation,32.53%,,,,,,,86.6 µM,300 ± 6.5 µM,6.8 µM,16 to 64 µg/mL,"MBC ([1]; DSM17938): > 8000 µg/mL; MIC ([1]; DSM17938): 8000 µg/mL; MIC ([1]; DSM17938, 24 h): 8000 µg/mL; viability (flow cytometry) [2]: 35%; MBC ([3]; ATCC53103): > 16000 µg/mL; MIC ([3]; ATCC53103, 24 h): > 16000 µg/mL; biofilm biomass percentage (crystal violet) versus untreated samples [5]: significantly lower; percentage of alamarBlue reduction in respect to the corresponding controls [5]: about 80%; pOMV eDNA+ count versus untreated [6]: no differences were found; total pOMVs count versus untreated [6]: lower count; MBC ([7]; ATCCSD5214): > 16000 µg/mL; MIC ([7]; ATCCSD5214, 24 h): > 16000 µg/mL; Ki [19]: 8.4 µM; MBC ([8]; ATCC43504): 256 µg/mL; MIC ([8]; ATCC43504, 72 h): 128 µg/mL; Ki [15]: 13.3 µM; Ki [17]: 28 µM"
NC(N)=Nc1nc(CSCCC(N)=NS(N)(=O)=O)cs1 [famotidine],,,,,,,,,,,,,,,,,,,,,inhibitory profile toward HpCAβ [20]: nanomolar range

# Source: PMC8584244 (International Journal of Molecular Sciences, 2021)
